Test results reported in the NIST ThermoML archive (doi:10.1016/j.fluid.2007.08.010).
Numbers after ± are expanded uncertainties.

Conditions: Liquid, Falling or rolling sphere viscometry

c1ccccc1 [benzene]
viscosity [mPa·s]
Conditions | 690 kPa | 5000 kPa | 10000 kPa | 20000 kPa | 30000 kPa | 40000 kPa | 50000 kPa | 60000 kPa
313.2 K | 0.479 ± 0.02 | 0.5 ± 0.02 | 0.524 ± 0.021 | 0.574 ± 0.023 | 0.625 ± 0.025 | 0.675 ± 0.027 | 0.725 ± 0.029 | 0.774 ± 0.031
333.2 K | 0.387 ± 0.016 | 0.404 ± 0.016 | 0.424 ± 0.017 | 0.466 ± 0.019 | 0.509 ± 0.021 | 0.553 ± 0.023 | 0.597 ± 0.024 | 0.641 ± 0.026
353.2 K | 0.317 ± 0.013 | 0.331 ± 0.013 | 0.347 ± 0.014 | 0.38 ± 0.015 | 0.415 ± 0.017 | 0.451 ± 0.018 | 0.489 ± 0.02 | 0.526 ± 0.021
373.2 K | 0.269 ± 0.011 | 0.279 ± 0.011 | 0.291 ± 0.012 | 0.316 ± 0.013 | 0.344 ± 0.014 | 0.372 ± 0.015 | 0.402 ± 0.016 | 0.434 ± 0.018
393.2 K | 0.239 ± 0.01 | 0.246 ± 0.01 | 0.255 ± 0.01 | 0.273 ± 0.011 | 0.294 ± 0.012 | 0.315 ± 0.013 | 0.339 ± 0.014 | 0.364 ± 0.015

CCCCCCCCCCCCCC [tetradecane]
viscosity [mPa·s]
Conditions | 690 kPa | 5000 kPa | 10000 kPa | 20000 kPa | 30000 kPa | 40000 kPa | 50000 kPa | 60000 kPa
313.2 K | 1.653 ± 0.068 | 1.738 ± 0.071 | 1.831 ± 0.075 | 2.025 ± 0.083 | 2.241 ± 0.092 | 2.483 ± 0.1 | 2.767 ± 0.11 | 3.093 ± 0.13
333.2 K | 1.218 ± 0.05 | 1.283 ± 0.053 | 1.345 ± 0.055 | 1.473 ± 0.06 | 1.607 ± 0.066 | 1.74 ± 0.071 | 1.886 ± 0.077 | 2.043 ± 0.084
353.2 K | 0.896 ± 0.037 | 0.957 ± 0.039 | 1.017 ± 0.042 | 1.128 ± 0.046 | 1.229 ± 0.05 | 1.325 ± 0.054 | 1.423 ± 0.058 | 1.518 ± 0.062
373.2 K | 0.66 ± 0.027 | 0.708 ± 0.029 | 0.757 ± 0.031 | 0.852 ± 0.035 | 0.943 ± 0.039 | 1.031 ± 0.042 | 1.117 ± 0.046 | 1.202 ± 0.049
393.2 K | 0.527 ± 0.022 | 0.568 ± 0.023 | 0.609 ± 0.025 | 0.687 ± 0.028 | 0.767 ± 0.031 | 0.839 ± 0.034 | 0.908 ± 0.037 | 0.976 ± 0.04
